Tests used:
Format in all cases: functional
Campylobacter coli [1] = experiment: Antimicrobial activity against Campylobacter coli by disk diffusion method
Campylobacter coli [2] = experiment: Antimicrobial activity against Campylobacter coli assessed as resistant rate
Campylobacter jejuni = experiment: Antimicrobial activity against Campylobacter jejuni by disk diffusion method

Structure (SMILES) | diameter of the inhibition zone (DIZ) (Campylobacter coli [1]) | Activity (Campylobacter coli [2]) [%] | diameter of the inhibition zone (DIZ) (Campylobacter jejuni)
O=C(O)c1cn(C2CC2)c2cc(N3CCNCC3)c(F)cc2c1=O [CIPROFLOXACIN] | >=20 mm |  | 
CC[C@H]1OC(=O)[C@H](C)[C@@H](O[C@H]2C[C@@](C)(OC)[C@@H](O)[C@H](C)O2)[C@H](C)[C@@H](O[C@@H]2O[C@H](C)C[C@H](N(C)C)[C@H]2O)[C@](C)(O)C[C@@H](C)C(=O)[C@H](C)[C@@H](O)[C@]1(C)O [ERYTHROMYCIN] | >=15 mm |  | 
CN(C)[C@@H]1C(O)=C(C(N)=O)C(=O)[C@@]2(O)C(O)=C3C(=O)c4c(O)cccc4[C@@](C)(O)[C@H]3C[C@@H]12 [TETRACYCLINE] | >=26 mm | 48 | <=20 mm
